Assays:
[1] = target: T1, enzyme FAAH (Fatty Acid Amide Hydrolase) (Mus musculus, UniProt O08914); experiment: FAAH fluorescence enzymatic test, hydrolysis of AAMC (protocol 2); format: biochemical; details: mouse brain homogenate, AAMC 10 μM, 20 mins preincubation at 25° C., 40 mins at 37° C., read-out: IC50 (concentration inhibiting 50% of the control enzymatic activity of FAAH)
T1 construct: The membrane homogenates are prepared extemporaneously by homogenizing the tissues; from tissue; host or cells: mouse brain (minus the cerebellum), homogenate
T1 sequence (O08914 1-579): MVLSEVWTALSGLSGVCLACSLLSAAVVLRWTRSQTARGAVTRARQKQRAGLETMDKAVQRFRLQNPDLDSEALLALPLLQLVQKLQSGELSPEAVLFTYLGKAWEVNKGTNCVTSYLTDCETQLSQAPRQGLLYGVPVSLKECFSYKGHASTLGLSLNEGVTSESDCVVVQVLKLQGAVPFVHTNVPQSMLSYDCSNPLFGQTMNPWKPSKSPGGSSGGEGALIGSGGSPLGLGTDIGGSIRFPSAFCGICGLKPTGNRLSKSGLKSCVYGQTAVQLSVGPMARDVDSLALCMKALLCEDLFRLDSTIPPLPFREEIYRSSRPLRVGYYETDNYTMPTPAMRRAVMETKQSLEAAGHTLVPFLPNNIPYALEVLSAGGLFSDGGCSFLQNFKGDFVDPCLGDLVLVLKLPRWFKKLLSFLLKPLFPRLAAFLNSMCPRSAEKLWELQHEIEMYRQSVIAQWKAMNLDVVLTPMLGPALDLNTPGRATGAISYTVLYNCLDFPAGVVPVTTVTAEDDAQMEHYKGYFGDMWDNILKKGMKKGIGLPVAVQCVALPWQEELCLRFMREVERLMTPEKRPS
Procedure: The compounds of the invention were subjected to pharmacological tests to determine their inhibitory effect on the enzyme FAAH (Fatty Acid Amide Hydrolase).
Thus, mouse brains (minus the cerebellum) are removed and stored at −80° C. The brain homogenates are prepared extemporaneously by homogenizing the tissues using a Precellys® machine in the reaction buffer (10 mM Tris-HCl, pH=8, 150 mM NaCl and 1 mM ethylenediamine-tetraacetic acid (EDTA)). The enzymatic reaction is performed in black polystyrene 384-well plates in a final volume of 50 μl. Reaction buffer supplemented with fatty acid-free bovine serum albumin (BSA, 1 mg/ml) is used for the enzymatic reaction, dilution of the compounds and dilution of the AAMC. The reaction buffer containing BSA (25 μl/well), the diluted test compounds at different concentrations (5 μl/well containing 1% DMSO) and the membrane preparation (10 μl/well, i.e. 200 μg of tissue per test) are successively added to the wells. After preincubation of the compounds with the enzyme for 20 mins at 25° C., the reaction is started by addition of 10 μl of substrate per well (AAMC, final concentration 10 μM). After incubation for 40 mins at 37° C., the aminomethyl coumarin (AMC) produced is measured by fluorescent counting (Envision plate reader).

male OF1 mice = experiment: test of analgesia: PBQ-induced abdominal stretching; format: in vivo, mouse; details: 30 mg/kg p.o. at 120 mins before PBQ
Procedure: The in vivo activity of the compounds of the invention was evaluated in a test of analgesia.
Thus, the intraperitoneal (i.p.) administration of PBQ (phenylbenzoquinone, 2 mg/kg in 0.9% sodium chloride solution containing 5% ethanol) to male OF1 mice weighing 25 to 30 g causes abdominal stretching, on average 30 torsions or contractions during the period of 5 to 15 mins after injection. The test compounds are administered orally (p.o.) or intraperitoneally (i.p.) suspended in Tween 80 at 0.5%, 60 mins or 120 mins before the administration of PBQ. Under these conditions, the most powerful compounds reduce by 35% to 80% the number of stretches induced by the PBQ, in a dosage range lying between 1 and 30 mg/kg. For example, compound 25 of Table 1 reduces by 50% the number of stretches induced by the PBQ, at a dose of 30 mg/kg p.o. at 120 mins.

Structure (SMILES) | IC50 [1] [nM] | melting point [°C] | reduction of the number of stretches induced by the PBQ (male OF1 mice) [%]
CNC(=O)c1cc(COC(=O)N2CCC3(CC2)CC(Oc2ccc(-c4ccc(F)cc4)cc2)C3)on1 [Compound 19, 3-methylcarbamoyl-isoxazol-5-ylmethyl 2-(4′-fluorobiphenyl-4-yloxy)-7-aza-spiro[3.5]nonane-7-carboxylate] | 1.7 | 174 to 176 | 
CNC(=O)c1cc(COC(=O)N2CC3(CC(Oc4ccc(-c5ccc(F)cc5)cc4)C3)C2)on1 [Compound 25, 3-methylcarbamoyl-isoxazol-5-ylmethyl 6-(4′-fluorobiphenyl-4-yloxy)-2-aza-spiro[3.3]heptane-2-carboxylate] | 0.46 | 163 to 165 | 50

Reference: US8394787B2, “7-aza-spiro[3.5]nonane-7-carboxylate derivatives, preparation thereof and therapeutic use thereof” (Sanofi, priority 2009, dated 2013)
